Laboratory results from the NIST ThermoML archive (doi:10.1021/je500513b).

Assay: mn = molality of the nth substance listed, in mol/kg
Conditions: for surface tension liquid-gas: Pendant drop shape; for electrical conductivity: 100 kPa, Liquid, Mettler Toledo inLab 710

O [water] + CCCCCCCCCCCC[N+](C)(C)CCCC[N+](C)(C)CCCCCCCCCCCC.[Br-].[Br-]
Conditions	surface tension liquid-gas [mN/m]
298.15 K, m2 = 0	71.98

CCCCCCCCCCCCCC[N+](C)(C)CCCC[N+](C)(C)CCCCCCCCCCCCCC.[Br-].[Br-] + O
Conditions	electrical conductivity, 298.15 K [S/m]	electrical conductivity, 303.15 K [S/m]	electrical conductivity, 308.15 K [S/m]	electrical conductivity, 313.15 K [S/m]	electrical conductivity, 318.15 K [S/m]	electrical conductivity, 323.15 K [S/m]	surface tension liquid-gas, 298.15 K [mN/m]
m1 = 1e-05	–	–	–	–	–	–	58.66
m1 = 2e-05	–	–	–	–	–	–	56.16
m1 = 3e-05	–	–	–	–	–	–	51.87
m1 = 4e-05	–	–	–	–	–	–	50.69
m1 = 5e-05	–	–	–	–	–	–	49.28
m1 = 6e-05	–	–	–	–	–	–	47.86
m1 = 7e-05	–	–	–	–	–	–	45.48
m1 = 8e-05	–	–	–	–	–	–	44.02
m1 = 9e-05	–	–	–	–	–	–	43.09
m1 = 0.0001	–	–	–	–	–	–	42.13
m1 = 0.000111	0.00256	–	0.00315	0.00337	–	0.00418	–
m1 = 0.000118	0.0027	0.00296	0.00332	0.00354	0.00387	0.00442	–
m1 = 0.00012	–	–	–	–	–	–	39.63
m1 = 0.000125	0.00286	0.00313	0.00351	0.00375	0.00411	0.00465	–
m1 = 0.000133	0.003	0.00333	0.00371	0.00401	0.00436	0.0049	–
m1 = 0.00014	–	–	–	–	–	–	39.01
m1 = 0.000143	0.00321	0.00354	0.00392	0.00426	0.00463	0.00514	–
m1 = 0.00015	0.00333	0.00365	0.00407	0.00448	0.00486	0.00538	–
m1 = 0.000158	0.00344	0.00377	0.00423	0.00468	0.005	0.00563	–
m1 = 0.000167	0.00354	0.00391	0.00442	0.00491	0.00524	0.00588	–
m1 = 0.00017	–	–	–	–	–	–	38.87
m1 = 0.000176	0.00364	0.00405	0.00458	0.00514	0.00548	0.0062	–
m1 = 0.000188	0.00373	0.00418	0.00475	0.0054	0.00576	0.00653	–
m1 = 0.000197	0.00382	0.00427	0.00487	0.00557	0.00593	0.00682	–
m1 = 0.0002	–	–	–	–	–	–	38.31
m1 = 0.000207	0.0039	0.00436	0.005	0.00574	0.00612	0.00712	–
m1 = 0.000218	0.00399	0.00447	0.00514	0.00588	0.00632	0.00745	–
m1 = 0.000231	0.00409	0.00457	0.00529	0.00606	0.00655	0.00772	–
m1 = 0.00024	0.00416	0.00465	0.00539	0.00617	0.00667	0.00786	–
m1 = 0.00025	0.00422	0.00473	0.00549	0.00628	0.0068	0.00805	–
m1 = 0.000261	0.0043	0.00482	0.0056	0.00641	0.00694	0.00823	–
m1 = 0.000273	0.00438	0.00489	0.00572	0.00652	0.00708	0.00839	–
m1 = 0.000286	0.00448	0.00499	0.00584	0.00667	0.00724	0.00858	–
m1 = 0.0003	0.00459	0.00512	0.00597	0.00681	0.0074	0.00877	37.21
